Usually IC50 stands for the point on the concentration scale where inhibition reaches its midpoint.

We go through 61 compounds from US10150728B2, “Alkylene derivatives” (Shionogi & Co., Ltd., priority 2013, dated 2018).

In this test the target is recombinant human ACC2 (Homo sapiens (Human), UniProt O00763). Kind of test: Measurement of inhibitory activity on human ACC2 (MALDI-TOF MS, acetyl CoA to malonyl CoA conversion). It counts as biochemical. The note with it: Tables 155-159. An outline of the steps:
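His-tagged human ACC2 (residues 27–2458) from baculovirus-infected Sf-9 cells was preincubated 1 h in pH 7.4 HEPES-KOH buffer with MgCl2, 6-10 mM potassium citrate, glutathione and BSA. Substrate solution held 1 mM ATP, 0.8 mM acetyl CoA and 25-50 mM bicarbonate. After 1–3 h at room temperature, malonyl CoA/(malonyl+acetyl CoA) was read by negative-mode MALDI-TOF MS; citrate, bicarbonate and time varied by enzyme lot.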

recombinant human ACC2, sequence (O00763 27-2458): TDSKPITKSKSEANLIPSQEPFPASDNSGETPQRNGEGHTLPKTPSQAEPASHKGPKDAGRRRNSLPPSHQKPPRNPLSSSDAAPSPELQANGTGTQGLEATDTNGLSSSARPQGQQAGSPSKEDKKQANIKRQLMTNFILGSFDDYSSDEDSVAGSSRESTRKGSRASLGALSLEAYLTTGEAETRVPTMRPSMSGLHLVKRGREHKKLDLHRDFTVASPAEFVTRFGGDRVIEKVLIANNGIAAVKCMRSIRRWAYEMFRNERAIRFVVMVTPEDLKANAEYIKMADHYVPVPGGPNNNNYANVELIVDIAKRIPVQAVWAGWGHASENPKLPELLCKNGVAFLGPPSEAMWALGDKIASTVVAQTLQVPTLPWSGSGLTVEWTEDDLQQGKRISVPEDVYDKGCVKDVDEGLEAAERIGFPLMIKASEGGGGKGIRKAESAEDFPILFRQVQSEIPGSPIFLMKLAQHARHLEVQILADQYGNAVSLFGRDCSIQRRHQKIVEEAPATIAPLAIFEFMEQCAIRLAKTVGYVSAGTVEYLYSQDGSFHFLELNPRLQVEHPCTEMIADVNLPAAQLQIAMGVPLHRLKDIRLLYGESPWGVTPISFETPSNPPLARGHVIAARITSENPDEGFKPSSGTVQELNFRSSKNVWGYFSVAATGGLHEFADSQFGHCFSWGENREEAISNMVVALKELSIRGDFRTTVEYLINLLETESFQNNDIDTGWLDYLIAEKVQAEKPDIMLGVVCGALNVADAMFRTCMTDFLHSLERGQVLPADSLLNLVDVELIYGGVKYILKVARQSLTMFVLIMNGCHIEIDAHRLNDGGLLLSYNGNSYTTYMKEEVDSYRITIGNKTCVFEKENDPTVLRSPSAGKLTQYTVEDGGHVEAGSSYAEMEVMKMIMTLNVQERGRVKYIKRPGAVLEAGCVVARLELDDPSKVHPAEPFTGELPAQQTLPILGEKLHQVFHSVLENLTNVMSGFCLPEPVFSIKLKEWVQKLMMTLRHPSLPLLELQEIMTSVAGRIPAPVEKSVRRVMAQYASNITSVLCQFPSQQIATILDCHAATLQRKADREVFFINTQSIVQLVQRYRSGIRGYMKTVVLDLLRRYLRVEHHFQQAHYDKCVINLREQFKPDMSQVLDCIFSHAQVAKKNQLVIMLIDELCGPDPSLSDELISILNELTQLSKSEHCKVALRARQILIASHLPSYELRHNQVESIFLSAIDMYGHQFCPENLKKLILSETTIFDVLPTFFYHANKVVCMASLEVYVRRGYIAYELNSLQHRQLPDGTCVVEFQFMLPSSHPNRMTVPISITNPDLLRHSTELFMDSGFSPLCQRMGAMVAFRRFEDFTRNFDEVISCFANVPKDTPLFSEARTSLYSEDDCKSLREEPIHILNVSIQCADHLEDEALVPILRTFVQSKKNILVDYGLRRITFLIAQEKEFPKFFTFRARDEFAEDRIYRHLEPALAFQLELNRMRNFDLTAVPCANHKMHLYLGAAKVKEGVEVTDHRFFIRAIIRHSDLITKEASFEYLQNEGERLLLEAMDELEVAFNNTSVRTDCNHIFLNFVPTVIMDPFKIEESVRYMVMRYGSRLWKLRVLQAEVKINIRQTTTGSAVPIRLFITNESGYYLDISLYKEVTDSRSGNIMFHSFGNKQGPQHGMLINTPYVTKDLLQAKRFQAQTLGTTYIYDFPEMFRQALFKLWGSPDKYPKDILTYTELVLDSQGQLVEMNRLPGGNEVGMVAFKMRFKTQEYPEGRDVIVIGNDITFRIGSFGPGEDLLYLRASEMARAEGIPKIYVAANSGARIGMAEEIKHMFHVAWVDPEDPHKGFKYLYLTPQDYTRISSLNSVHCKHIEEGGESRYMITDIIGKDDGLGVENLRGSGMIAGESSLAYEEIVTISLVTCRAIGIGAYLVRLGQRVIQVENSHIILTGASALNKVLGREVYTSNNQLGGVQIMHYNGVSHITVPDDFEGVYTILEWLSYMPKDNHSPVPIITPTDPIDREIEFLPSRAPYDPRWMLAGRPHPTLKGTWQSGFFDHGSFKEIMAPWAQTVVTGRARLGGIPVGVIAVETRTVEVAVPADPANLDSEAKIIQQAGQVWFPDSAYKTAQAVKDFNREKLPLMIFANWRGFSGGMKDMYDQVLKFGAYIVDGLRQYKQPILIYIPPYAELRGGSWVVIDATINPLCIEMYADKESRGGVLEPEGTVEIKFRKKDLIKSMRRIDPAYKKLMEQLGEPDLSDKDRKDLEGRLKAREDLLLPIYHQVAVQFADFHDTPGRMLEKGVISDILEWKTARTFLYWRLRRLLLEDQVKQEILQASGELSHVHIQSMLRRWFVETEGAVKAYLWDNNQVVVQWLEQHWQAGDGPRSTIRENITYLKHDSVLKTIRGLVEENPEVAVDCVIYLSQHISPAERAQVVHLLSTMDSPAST

As for `C[C@@H](CC[C@@H]1CC[C@@H](Oc2nc3c(F)cc(OCC(F)F)c(Cl)c3n2C)CO1)NC(N)=O` [Compound I-674], the IC50 amounted to 7 nM.
The same measure for `CC(=O)N[C@@H](C)[C@H](C)O[C@H]1CC[C@H](Oc2nc3cnc(OCC(F)F)c(Cl)c3n2C)CC1` [Compound I-675]: 18 nM; for `CC(=O)N[C@@H](C)CO[C@H]1CC[C@H](Oc2nc3ccc(OCC(F)F)c(F)c3n2C)CC1` [Compound I-677]: 13 nM; for `CC(=O)N[C@@H](C)CO[C@H]1CC[C@H](Oc2nc3c(Cl)cc(Br)cc3n2C)CC1` [Compound I-678]: 123 nM.
As to `CC(=O)N[C@@H](C)CO[C@H]1CC[C@H](Oc2nc3c(C#N)cc(OCC(F)F)cc3n2C)CC1` [Compound I-679], the IC50 came out at 625 nM.
Turning to `CC(=O)N[C@@H](C)CO[C@H]1CC[C@H](Oc2nc3c(Br)cc(OCC(F)F)cc3n2C)CC1` [Compound I-680], the IC50 came to 140 nM.
The same measure for `C[C@@H](CC[C@H]1CC[C@H](Oc2nc3cnc(OC4CC4)c(Cl)c3n2C)CC1)NC(N)=O` [Compound I-682]: 5 nM; for `C[C@@H](CO[C@H]1CC[C@H](Oc2nc3c(F)cc(OC4CC4)c(F)c3n2C)CC1)NC(=O)C(F)F` [Compound I-683]: 3 nM.
Take `CC(=O)N[C@@H](C)CC[C@@H]1CC[C@@H](Oc2nc3cnc(OCC(F)F)c(Cl)c3n2C)CO1` [Compound I-684]: the IC50 stood at 6 nM.
Consider `CCOc1c(F)cc2c(nc(O[C@H]3CC[C@H](OC[C@H](C)NC(C)=O)CC3)n2C)c1F` [Compound I-685], for which the IC50 was determined as 170 nM.
To `CCOc1nc(F)c2nc(O[C@H]3CC[C@H](OC[C@H](C)NC(C)=O)CC3)n(C)c2c1Cl` [Compound I-686] belongs 5 nM.
With `C[C@@H](CO[C@H]1CC[C@H](Oc2nc3c(F)cc(OCC(F)F)c(Cl)c3n2C)CC1)NC(N)=O` [Compound I-687], the IC50 was 14 nM.
As to `CC(=O)N[C@@H](C)CC[C@@H]1CC[C@@H](Oc2nc3c(F)cc(OCC(F)F)c(Cl)c3n2C)CO1` [Compound I-688], the IC50 was 4 nM.
The same measure for `CC(=O)N[C@@H](C)[C@H](C)O[C@H]1CC[C@H](Oc2nc3cnc(OC4CC4)c(F)c3n2C)CC1` [Compound I-689]: 25 nM; for `CC(=O)N[C@@H](C)CO[C@H]1CC[C@H](Oc2nc3ccc(Br)c(F)c3n2C)CC1` [Compound I-691]: 25 nM; for `CCOc1cc(Cl)c2nc(O[C@H]3CC[C@H](OC[C@H](C)NC(C)=O)CC3)n(C)c2c1` [Compound I-692]: 34 nM.
To `CC(=O)N[C@@H](C)CO[C@H]1CC[C@H](Oc2nc3cnc(OC4CC(F)(F)C4)c(Cl)c3n2C)CC1` [Compound I-693] belongs 8 nM; to `CCOc1ncc2nc(O[C@H]3CC[C@H](OC[C@H](C)NC(C)=O)CC3)n(C)c2c1F` [Compound I-694], 13 nM.
As to `CC(=O)N[C@@H](C)CO[C@H]1CC[C@H](Oc2nc3cnc(C4CC4)c(Cl)c3n2C)CC1` [Compound I-695], the 50% inhibitory concentration (IC50) was 96 nM.
To `COC(=O)NC(=O)N[C@@H](C)CO[C@H]1CC[C@H](Oc2nc3cnc(OC4CC4)c(Cl)c3n2C)CC1` [Compound I-696] belongs 497 nM; to `C[C@@H](CO[C@H]1CC[C@H](Oc2nc3c(F)cc(OC4CC4)c(F)c3n2C)CC1)NC(N)=O` [Compound I-697], 4 nM.
The same measure for `CCOc1c(F)cc2nc(O[C@H]3CC[C@H](OC[C@H](C)NC(C)=O)CC3)n(C)c2c1F` [Compound I-698]: 3 nM; for `CC(=O)N[C@@H](CF)CO[C@H]1CC[C@H](Oc2nc3c(F)cc(OCC(F)F)c(F)c3n2C)CC1` [Compound I-700]: 9 nM.
To `CNC(=O)N[C@@H](C)CO[C@H]1CC[C@H](Oc2nc3c(F)cc(OCC(F)F)c(F)c3n2C)CC1` [Compound I-701] belongs 23 nM.
As to `CC(=O)N[C@@H](C)CO[C@H]1OC[C@@H](Oc2nc3c(F)cc(OCC(F)F)c(F)c3n2C)C[C@@H]1C` [Compound I-702], the IC50 stood at 15 nM.
On to `CC(=O)N[C@@H](C)CO[C@H]1CC[C@H](Oc2nc3c(C#N)c(F)c(OCC(F)F)c(F)c3n2C)CO1` [Compound I-703], for which the IC50 was found to be 30 nM.
To `CC(=O)N[C@@H](C)CO[C@H]1CC[C@H](Oc2nc3cnc(OC4CC4)c(Cl)c3n2C)CC1` [Compound I-705] belongs 9 nM; to `CC(=O)N[C@@H](C)CO[C@H]1CC[C@H](Oc2nc3c(Cl)cc(OCC(F)F)cc3n2C)CC1` [Compound I-706], 48 nM.
For `CC(=O)N[C@@H](C)CO[C@H]1CC[C@H](Oc2nc3c(F)cc(OCC(F)F)cc3n2C)CC1` [Compound I-707], the 50% inhibitory concentration (IC50) was 84 nM.
The same measure for `CC(=O)N[C@@H](C)CO[C@H]1CC[C@H](Oc2nc3cnc(OCC4CC4(F)F)c(Cl)c3n2C)CC1` (stereo partly shown) [Compound I-708]: 5 nM; for `CC(=O)N[C@@H](C)CO[C@H]1CC[C@H](Oc2nc3c(C)cc(OCC(F)F)cc3n2C)CC1` [Compound I-709]: 133 nM.
To `CC(=O)N[C@@H](C)CO[C@H]1CC[C@H](Oc2nc3c(Cl)nc(OC4CC4)c(Cl)c3n2C)CC1` [Compound I-710] belongs 6 nM.
To `CC(=O)N[C@@H](C)CO[C@H]1CC[C@H](Oc2nc3c(Cl)nc(OC4CC4)c(F)c3n2C)CC1` [Compound I-711] belongs 7 nM; to `CC(=O)N[C@@H](C)CO[C@H]1CC[C@H](Oc2nc3c(F)cc(OC4CC(F)(F)C4)c(F)c3n2C)CC1` [Compound I-713], 3 nM; to `C[C@@H](CO[C@H]1CC[C@H](Oc2nc3c(F)cc(OCC(F)F)c(F)c3n2C)CC1)NC(=O)CC#N` [Compound I-714], 44 nM.
Regarding `CC(=O)N[C@@H](C)[C@@H](C)O[C@H]1CC[C@H](Oc2nc3c(F)cc(OCC(F)F)c(F)c3n2C)CC1` [Compound I-716], the half-maximal inhibitory concentration (IC50) was found to be 170 nM.
To `CC(=O)N[C@@H](C)CO[C@H]1CC[C@H](Oc2nc3c(F)c(C)c(OCC(F)F)c(F)c3n2C)CC1` [Compound I-717] belongs 15 nM; to `CCOc1ccc2nc(O[C@H]3CC[C@H](OC[C@H](C)NC(C)=O)CC3)n(C)c2c1C#N` [Compound I-720], 775 nM; to `CC(=O)N[C@@H](C)CO[C@H]1CC[C@H](Oc2nc3cnc(OCC(F)F)c(Cl)c3n2C)CC1` [Compound I-722], 9 nM.
For the compound `CCOc1cc(F)c2nc(O[C@H]3CC[C@H](OC[C@H](C)NC(C)=O)CC3)n(C)c2c1` [Compound I-723], the 50% inhibitory concentration (IC50) was 41 nM.
To `CC(=O)N[C@@H](C)CO[C@H]1CC[C@H](Oc2nc3cnc(OC[C@@H](C)F)c(Cl)c3n2C)CC1` [Compound I-724] belongs 9 nM; to `CCOc1cc2c(nc(O[C@H]3CC[C@H](OC[C@H](C)NC(C)=O)CC3)n2C)c(Cl)c1Cl` [Compound I-725], 101 nM.
Regarding `CC(=O)N[C@@H](C)CO[C@H]1CC[C@H](Oc2nc3c(C)nc(OC4CC4)c(Cl)c3n2C)CC1` [Compound I-726], the IC50 worked out at 9 nM.
To `CC(=O)N[C@@H](C)CO[C@H]1CC[C@H](Oc2nc3c(Cl)nc(C4CC4)c(Cl)c3n2C)CC1` [Compound I-727] belongs 194 nM; to `CC(=O)N[C@@H](CF)CO[C@H]1CC[C@H](Oc2nc3cnc(OCC(F)F)c(Cl)c3n2C)CC1` [Compound I-728], 8 nM; to `C[C@@H](CO[C@H]1CC[C@H](Oc2nc3c(F)cc(OC4CC4)c(F)c3n2C)CC1)NC(=O)CC#N` [Compound I-729], 4 nM.
The same measure for `CC(=O)N[C@@H](CC#N)CO[C@H]1CC[C@H](Oc2nc3cnc(OCC(F)F)c(Cl)c3n2C)CC1` [Compound I-730]: 910 nM; for `CC(=O)N[C@@H](C)[C@@H](C)O[C@H]1CC[C@H](Oc2nc3cnc(OCC(F)F)c(Cl)c3n2C)CC1` [Compound I-732]: 260 nM.
To `CC(=O)N[C@@H](C)CO[C@H]1CC[C@H](Oc2nc3c(F)c(Cl)c(OCC(F)F)c(F)c3n2C)CC1` [Compound I-733] belongs 9 nM; to `CC(=O)N[C@@H](C)CO[C@H]1CC[C@H](Oc2nc3c(F)cc(OC4CC4)cc3n2C)CC1` [Compound I-734], 4 nM.
Turning to `CCOc1ccc2nc(O[C@H]3CC[C@H](OC[C@H](C)NC(C)=O)CC3)n(C)c2c1C1CC1` [Compound I-735], the concentration for half-maximal inhibition (IC50) is 677 nM.
To `CC(=O)N[C@@H](C)CO[C@H]1CC[C@H](Oc2nc3cnc(OC(F)F)c(Cl)c3n2C)CC1` [Compound I-736] belongs 87 nM; to `CC(=O)N[C@@H](C)CO[C@H]1CC[C@H](Oc2nc3c(F)cc(OCC4CC4)cc3n2C)CC1` [Compound I-737], 33 nM; to `CC(=O)N[C@@H](C)CO[C@H]1CC[C@H](Oc2nc3c(Br)cc(OCc4ccccc4)cc3n2C)CC1` [Compound I-738], 35 nM.
As to `CCOc1cc(Cl)c2nc(O[C@H]3CC[C@H](OC[C@H](C)NC(C)=O)CC3)n(C)c2c1Cl` [Compound I-739], the IC50 came out at 7 nM.
The same measure for `CCOc1cc(F)c2nc(O[C@H]3CC[C@H](OC[C@H](C)NC(C)=O)CC3)n(C)c2c1Cl` [Compound I-740]: 3 nM; for `CC(=O)N[C@@H](C)CO[C@H]1CC[C@H](Oc2nc3c(F)cc(OCC(F)F)c(F)c3n2C)CC1` [Compound I-741]: 7 nM.
As to `CC(=O)N[C@@H](C)CO[C@H]1CC[C@H](Oc2nc3c(Cl)cc(OCC(F)F)c(F)c3n2C)CC1` [Compound I-742], the concentration for half-maximal inhibition (IC50) amounted to 13 nM.
The same measure for `CC(=O)N[C@@H](C)CO[C@H]1CC[C@H](Nc2nc3c(F)cc(OCC(F)F)c(F)c3n2C)CC1` [Compound I-744]: 740 nM; for `CC(=O)N[C@@H](C)CC(O)[C@@H]1CC[C@@H](Oc2nc3c(F)cc(OCC(F)F)c(F)c3n2C)CO1` (stereo partly shown) [Compound I-745]: 490 nM.
To `CC(=O)N[C@@H](C)[C@@H](C)O[C@H]1CC[C@H](Oc2nc3cnc(OC4CC4)c(F)c3n2C)CC1` [Compound I-746] belongs 350 nM.
